Laboratory results as given in patent US4716171A (Etablissements Nativelle S.A., priority 1981, dated 1987).

Legend:
[1] = LD50 in mice (Lichfield and Wilcoxon method); settings: mouse, in vivo
Text: (§1) For example, the results obtained with 3S-hydroxy-10,11-dihydroquinidine in the form of the hydrochloride salt are shown in Table 1 below.

[2] = LD50 in rats (Lichfield and Wilcoxon method); settings: rat, in vivo, male, oral
Text: as §1

arrhythmia = experiment: Test with aconitine (arrhythmia appearance time); assay type: in vivo, rats; settings: rats, I.V., 10 mg/kg
Text: (§2) Antiarrhythmic activity in mice was observed by means of the Lawson test, using the method described by J. W. Lawson, J. Pharmacol. Exp. Therp., 160, 22-31 (1968) and Cr. Narcisse et al. Ann. Pharma. Fr., 37, 325-330 (1979), in rats by the test with aconitine of S. Witchitz et al. Coeur Med. Int., X(2), 281-286 (1971), and in dogs by the Harris test described in Circulation, 1, 1318 (1950). 3S-hydroxy-10,11-dihydroquinidine was used for each of these three tests.

[3] = Electrophysiological study in anesthetized dog (closed thorax, bipolar catheter-electrodes); assay type: in vivo
Description: The study was carried out on a dog anesthetized with pentobarbital, with a closed thorax, by means of bipolar catheter-electrodes introduced into the cardiac cavities by transcutaneous venous and arterial tracts.
In this manner and by means of a programmable stimulator, sinusal automaticity, intracardiac conduction times, and the effective and functional cardiac refractory periods can be measured.

ventricular arrhythmia = experiment: Harris test; assay type: in vivo, dogs; settings: quinidine, dogs, I.V.
Text: as §2

## CC[C@@]1(O)CN2CC[C@H]1C[C@@H]2[C@@H](O)c1ccnc2ccc(OC)cc12 [3S-hydroxy-10,11-dihydroquinidine]
[1]; ip, mice, female, IP, read-out: LD50
  LD50: 180 mg/kg
[1]; ip, mice, male, IP, read-out: LD50
  LD50: 280 mg/kg
[1]; iv, mice, female, IV, read-out: LD50
  LD50: 105 mg/kg
[1]; iv, mice, male, IV, read-out: LD50
  LD50: 120 mg/kg
[1]; po, mice, female, oral, read-out: LD50
  LD50: 900 mg/kg
[1]; po, mice, male, oral, read-out: LD50
  LD50: 975 mg/kg
[2]
  LD50: 640 mg/kg

## C=C[C@H]1C[N@@]2CC[C@H]1C[C@@H]2[C@@H](O)c1ccnc2ccc(OC)cc12 [Quinidine, quinidine, reference compound]
[1]; ip, mice (male and female), intraperitoneal, comparison, read-out: LD50 (average values)
  LD50: 225 to 235 mg/kg
arrhythmia; control 98
  Appearance Time, ESV (ventricular extrasystoles): 150 min
arrhythmia; control 112
  Appearance Time, TV (ventricular tachycardium): 171 min
arrhythmia; control 228
  Appearance Time, FV (ventricular fibrillation): 474 min
arrhythmia; vs control 98
  Appearance Time, ESV (ventricular extrasystoles), %: +53%
arrhythmia; vs control 112
  Appearance Time, TV (ventricular tachycardium), %: +52%
[3]; 1 mg/kg
  Cardiac Cycle, percentage of variation: +2.7%
  HV (HissPurkinje conduction), percentage of variation: 0%
  PREA (Effective auricular refractory period), percentage of variation: +2%
  PREV (Effective ventricular refractory period), percentage of variation: +3.3%
  PRFN (Functional nodal refractory period), percentage of variation: +3%
  QRS (Intraventricular conduction), percentage of variation: 0%
  QTc (Corrected repolarization time), percentage of variation: +1.8%
  SH (AuriculoHissian conduction), percentage of variation: +3.5%
[3]; 5 mg/kg
  Cardiac Cycle, percentage of variation: +5.1%
  HV (HissPurkinje conduction), percentage of variation: +8.7%
  PREA (Effective auricular refractory period), percentage of variation: +3.5%
  PREV (Effective ventricular refractory period), percentage of variation: +6.5%
  PRFN (Functional nodal refractory period), percentage of variation: +5%
  QRS (Intraventricular conduction), percentage of variation: 0%
  QTc (Corrected repolarization time), percentage of variation: 0%
  SH (AuriculoHissian conduction), percentage of variation: +7.2%
[3]; 10 mg/kg
  Cardiac Cycle, percentage of variation: +9.2%
  HV (HissPurkinje conduction), percentage of variation: +17.7%
  PREA (Effective auricular refractory period), percentage of variation: +14.4%
  PREV (Effective ventricular refractory period), percentage of variation: +8.5%
  PRFN (Functional nodal refractory period), percentage of variation: +9%
  QRS (Intraventricular conduction), percentage of variation: 0%
  QTc (Corrected repolarization time), percentage of variation: +1.5%
  SH (AuriculoHissian conduction), percentage of variation: +10.5%
Ventricular arrhythmia; 6 mg/kg, 1 h
  % Protection: 21%
Ventricular arrhythmia; +5 mg, 1 h
  % Protection: 55%
Ventricular arrhythmia; +5 mg, 2 h
  % Protection: 52%
